The values that follow come from US10624968B2, “Compounds for treating cancer” (Bicycle Therapeutics Limited, priority 2017, dated 2020).

Read-outs that look alike come from different tables or passages of the source. Starred links: 1 amine or outer side, 2 acyl side, 3 side chain; linkers in the order of their positions; H or OH if unused. Positions of bridges follow the written chain, without caps; N, C: chain ends. Non-standard residues stand in square brackets, D forms with d. Residues, ends and D or L forms follow the SMILES beside them. Chains are numbered I, II in the order given. ξ: configuration not given here. *: point of attachment. Dolaproine = CO[C@@H]([C@@H]1CCCN1)[C@@H](C)C(=O)O; Dil = CC[C@H](C)[C@H](NC)[C@@H](CC(=O)O)OC; TBMB = c1c(C[*:1])cc(C[*:3])cc1C[*:2]; X2 = O=C(CCCC(=O)[*:2])NCCC(=O)[*:1]; PABC = O=C(OCc1ccc(N[*:1])cc1)[*:2]; X1 = C[C@@H](N*)[C@@H](O)c1ccccc1; ξ1Nal = NC(Cc1cccc2ccccc12)C(=O)O; Cit = NC(=O)NCCC[C@H](N)C(=O)O; NMeV = CN[C@H](C(=O)O)C(C)C; ξY = NC(Cc1ccc(O)cc1)C(=O)O; ξTle = CC(C)(C)C(N)C(=O)O; ξF = NC(Cc1ccccc1)C(=O)O; ξE = NC(CCC(=O)O)C(=O)O; ξD = NC(CC(=O)O)C(=O)O; ξN = NC(=O)CC(N)C(=O)O; ξC = NC(CS)C(=O)O; ξA = CC(N)C(=O)O; Sar = CNCC(=O)O

Data set [1] in a line: Body weight in HT1080 xenograft model (Example 7). In kind it is in vivo. Particulars: any of the doses tested (1, 3, and 10 mg/kg). The protocol:
I-1a was evaluated in a HT1080 xenograft model at 1, 3, and 10 mg/kg. Additionally the ability of the binding peptide (the Bicycle+Spacer of I-1a, structure shown in Example 6) to abrogate activity when dosed at a 100-fold excess immediately before treatment with I-1a in the HT1080 xenograft model was assessed.

Data set [2] has as its system MOLP-8. The experiment in a line: cells. Particulars: read-out: Re IC50; MOLP-8; 72 hours. The text has this: (§1) Details of the initial cell plating procedure are described in Table 3.
(§2) Data Details for Tables 5 and 6. Inhibition %=(Max−Sample value)/(Max−Min)*100.
(§3) The IC50 curves were generated by 4 Parameter Logistic Model—Sigmoidal Dose-Response Model as follows: Y=Bottom+(Top−Bottom)/(1+10^((log EC50-X)*HillSlope)).

Data set [3] concerns HT1080. The experiment in a line: cells. Particulars: read-out: Re IC50; HT1080; 72 hours.
Description: as §1, §2, §3

Data set [4] relates to SNU-16. The data set is described as follows: cells. Particulars: read-out: Re IC50; SNU-16; 72 hours.
Description: as §1, §2, §3

The subject of data set [5] is HT29. The data set is described as follows: cells. Particulars: read-out: Re IC50; HT29; 72 hours.
Description: as §1, §2, §3

Data set [6] has as its system MDA-MB-231. The experiment in a line: cells. Particulars: read-out: Re IC50; MDA-MB-231; 72 hours.
Description: as §1, §2, §3

In data set [7] the test system is NCI-H292. The experiment in a line: cells. Particulars: read-out: Re IC50; NCI-H292; 72 hours.
Description: as §1, §2, §3

In data set [8] the test system is PC-3. The data set is described as follows: cells. Particulars: read-out: Re IC50; PC-3; 72 hours.
Description: as §1, §2, §3

For data set [9], the system named is EBC-1. The experiment in a line: cells. Particulars: read-out: Re IC50; EBC-1; 72 hours.
Description: as §1, §2, §3

Data set [10] has as its system HCC1806. The data set is described as follows: cells. Particulars: read-out: Re IC50; HCC1806; 72 hours.
Description: as §1, §2, §3

The subject of data set [11] is NCI-H1975. The data set is described as follows: cells. Particulars: read-out: Re IC50; NCI-H1975; 72 hours.
Description: as §1, §2, §3

Data set [12] relates to HCT15. The experiment in a line: cells. Particulars: read-out: Re IC50; HCT15; 72 hours.
Description: as §1, §2, §3

Data set [13] in a line: Plasma stability (LC-MS/MS assay), mouse plasma, with and without AEBSF. The data set is classed as in vitro ADME. On the procedure:
(§4) I-1a plasma stability studies were conducted in human and mouse plasma.
(§5) In vitro plasma stability assay measures the extent of degradation of compounds in plasma.
(§6) Peptides or BDCs are incubated at 37° C. in plasma (mouse or human) at low micromolar concentrations for several hours. The stability is quantitatively measured by LC-MS/MS.
(§7) Add 8 μL of the 160 μM DMSO stock of peptide or BDC and add 8 μL of 160 μM DMSO stock of 06-34-18-N182 as internal standard to 304 μL of plasma (152 μL*2) for a final concentration of 4 μM (5% DMSO).
(§8) Incubate at 37° C. in 100% humidity.
(§9) Pipette out 40 μL for 7 timepoints: time 0, 1 h, 2 h, 4 h, 6 h, 8 h, 24 h into a 1.5 mL Eppendorf. Store at −80° C. immediately. (total volume of samples?×40=280 μL).
(§10) Add to the sample the extraction solvent. The extraction solvent contains 1 part of water, 3 parts of methanol, and 3 parts of acetonitrile.
(§11) To the time course samples add 120 μL of extraction solvent, mix thoroughly with pipette and gently vortex.
Centrifuge for 40 minutes at 14000 rpm at 4° C.
Transfer the supernatant to the LC-MS vials and run the experiment immediately afterwards.
It is recommend to follow one transition for the peptide of BDCs to study, and one transition for the internal standard 06-34-18-N182 at the same time. The most relevant Selected Ion Reaction (SIR) and Multiple Reaction Monitoring (MRM) transitions were determined for each peptide or BDC.
The analysis of the data has been performed using “QuanLynks” and “Sigmaplot” software.
For the studies depicted in FIGS. 1-3, the following conditions were used.
Column: Waters ACQUITY CSH Phenyl-Hexyl 1.7 μm 2.1×50 mm
Mobile Phase: […] ammonium bicarbonate in water; B=5 mM ammonium bicarbonate 10% water in acetonitrile.
Gradient: 5 to 60% B in 4 minutes at 0.6 mL/min flow.
To test the hypothesis that plasma instability in mouse was due to Ces1c, I-1a was incubated in mouse plasma both in the presence and absence of AEBSF,
Additionally, formation of the MMAE metabolite in mouse plasma (release of the toxin) was monitored both in the presence and absence of AEBSF.

Data set [14] has as its system HT1080 cells. The experiment in a line: Cytotoxicity in HT1080 cells in presence and absence of 1 mM bacitracin (ATPlite, 24 hour exposure). On the procedure: HT1080 cells (ATCC, via LGC, BIC918) Maintained in EMEM media (Sigma M2279)+10% FBS (Sigma Code F7524)+4 mM L-Glu (Invitrogen Cat 25030-024)
I-1a and Toxins with Bacitracin—24 or 72 Hour Exposure in 96 Well Plates
DB seeded cells in normal media, 75 μL in 96 well clear plates, ˜24 hours previous.
HT1080—7.5 k cells/well: 50% confluent upon dosing.
Dilute in media 1:42.85=5 μL DMSO dilute+209 μL media=>use 15 μL per well
This gives a 5 μM top concentration for BDCs in assay
Add 10 µL of media±bacitracin (2 plates of each)−leave for 1 hr
Bacitracin=1 mM final concentration. This requires a 10 mM concentration with no DMSO.
Add 15 μL treatment per well as in Table 19, below.
Seal plates with gas permeable membrane and incubate at 37° C.
Washout HT1080 plates with 2×150 μL PBS at 24 h and add 100 μL fresh media
At t=72 h, equilibrate ATPlite reagent to room temperature. Add 10 ml buffer to each vial of lyophilized substrate. Add 100 μL reagent per well. Seal with PCR seal and cover to protect from light. Shake for 20 mins before reading luminescence

Data set [15] is described as follows: Plasma stability (LC-MS/MS assay), human plasma. In kind it is in vitro ADME. Particulars: pH 7.4 at 37° C. The protocol: as §4, §5, §6, §7, §8, §9, §10, §11
Centrifuge for 40 minutes at 14000 rpm at 4° C. […]
It is recommend to follow one transition for the peptide of BDCs to study, and one transition for the internal standard 06-34-18-N182 at the same time. The most relevant Selected Ion Reaction (SIR) and Multiple Reaction Monitoring (MRM) transitions were determined for each peptide or BDC. […]

One may read the IC50 as the concentration that gives 50% inhibition. Usually half-life stands for the time in which the quantity being followed falls by half. A lower half-life goes with rapid decline. As for `CC[C@H](C)[C@@H]([C@@H](CC(=O)N1CCC[C@H]1[C@H](OC)[C@@H](C)C(=O)N[C@H](C)[C@@H](O)c1ccccc1)OC)N(C)C(=O)[C@@H](NC(=O)[C@H](C(C)C)N(C)C(=O)OCc1ccc(NC(=O)[C@H](CCCNC(N)=O)NC(=O)[C@@H](NC(=O)CCCC(=O)NCCC(=O)N(C)CC(=O)N(C)CC(=O)N(C)CC(=O)N(C)CC(=O)N(C)CC(=O)N(C)CC(=O)N(C)CC(=O)N(C)CC(=O)N(C)CC(=O)N(C)CC(=O)NC(C)C(=O)NC2CSCc3cc4cc(c3)CSCC(NC(=O)C(C)NC(=O)C(Cc3cccc5ccccc35)NC(=O)C(CCC(=O)O)NC(=O)C(CC(N)=O)NC(=O)C(C)NC2=O)C(=O)NC(CCC(=O)O)C(=O)NC(CC(=O)O)C(=O)NC(Cc2ccccc2)C(=O)NC(Cc2ccc(O)cc2)C(=O)NC(CC(=O)O)C(=O)NC(C(C)(C)C)C(=O)NC(C(N)=O)CSC4)C(C)C)cc1)C(C)C` (stereo partly drawn) [Compound I-1a] (I: [Sar][Sar][Sar][Sar][Sar][Sar][Sar][Sar][Sar][Sar][ξA][ξC][ξA][ξN][ξE][ξ1Nal][ξA][ξC][ξE][ξD][ξF][ξY][ξD][ξTle][ξC]-NH2 / II: V[Cit][PABC][NMeV]V[Dil][Dolaproine]-X1; linker I:12-I:18-I:25 via TBMB; linker I:N-II:N via X2), the “effect on body weight (in words)” value in data set [1] was “No dose-related effects on body weight”. Also, the IC50 in [2] was found to be 197 nM; in [3], 21.4 nM; in data set [4], 63.3 nM; in data set [5], 219 nM; in [6], 211 nM; in data set [7], 56.2 nM. The IC50 in data set [8] was 102 nM; in data set [9], 35.7 nM; in data set [10] it was 15.2 nM; in data set [11], 24.2 nM; in data set [12], above 5000 nM; in data set [14] (read-out: IC50 with 1 mM bacitracin, 24 hour exposure, + 1 mM bacitracin (PDI inhibitor)) it was 7.3 nM. Further, in data set [14] (read-out: Standard IC50, 24 hour exposure (high MT1 expression), no block), the IC50 came to 5.3 nM. Besides, the half-life at 4 μM in data set [13] (mouse plasma without AEBSF, pH 7.4 at 37° C.) is 24 h; in [13] (with AEBSF (concentration not stated), mouse plasma +AEBSF, pH 7.4 at 37° C.), above 24 h. Besides, the remaining at 24 h, 4 μM in data set [13] (mouse plasma without AEBSF, pH 7.4 at 37° C., read-out: % remained after 24 hours incubation) is 50%; in data set [13] (with AEBSF (concentration not stated), mouse plasma +AEBSF, pH 7.4 at 37° C., read-out: % remained after 24 hours incubation), 100%. Further, the “formation of the MMAE metabolite (release of the toxin)” value is recorded as “I-1a degradation tracks with the appearance of free MMAE” in [13] (mouse plasma, in the absence of AEBSF) and “lack of formation of free MMAE” in [13] (mouse plasma, in the presence of AEBSF). Also, the half-life at 1 μM in [13] (mouse plasma, 1 μM, pH 7.4 at 37° C.) was 6.4 h; in data set [15], above 24 h. In addition, the remaining at 24 h, 1 μM worked out at 57% in [13] (mouse plasma, 1 μM, pH 7.4 at 37° C., read-out: % remained after 24 hours incubation) and 96% in [15] (read-out: % remained after 24 hours incubation).
